Here are results for five molecules from patent US20070293560A1, “Compounds and compositions” (priority 2006, published 2007).

In one data set the target is T1, m-calpain (Homo sapiens, UniProt P17655).
T1 sequence (P17655 1-700): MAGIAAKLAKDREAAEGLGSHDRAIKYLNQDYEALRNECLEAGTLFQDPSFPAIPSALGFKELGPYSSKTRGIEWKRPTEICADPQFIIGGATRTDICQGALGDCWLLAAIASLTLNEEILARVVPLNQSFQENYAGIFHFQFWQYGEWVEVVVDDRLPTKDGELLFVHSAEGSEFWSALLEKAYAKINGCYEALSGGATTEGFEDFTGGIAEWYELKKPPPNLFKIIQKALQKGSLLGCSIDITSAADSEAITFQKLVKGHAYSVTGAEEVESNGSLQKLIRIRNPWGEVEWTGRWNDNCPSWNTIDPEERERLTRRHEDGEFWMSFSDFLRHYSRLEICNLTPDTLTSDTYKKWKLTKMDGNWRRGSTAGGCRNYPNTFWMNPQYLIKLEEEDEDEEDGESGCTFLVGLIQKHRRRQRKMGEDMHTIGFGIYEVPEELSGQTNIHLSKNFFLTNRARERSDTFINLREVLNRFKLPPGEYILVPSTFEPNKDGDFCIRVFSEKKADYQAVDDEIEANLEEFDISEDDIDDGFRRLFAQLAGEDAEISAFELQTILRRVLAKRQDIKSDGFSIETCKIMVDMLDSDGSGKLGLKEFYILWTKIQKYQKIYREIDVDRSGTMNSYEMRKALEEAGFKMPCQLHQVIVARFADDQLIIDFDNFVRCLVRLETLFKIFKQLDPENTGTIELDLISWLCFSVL
T1 sequence (P04632 1-268 partner): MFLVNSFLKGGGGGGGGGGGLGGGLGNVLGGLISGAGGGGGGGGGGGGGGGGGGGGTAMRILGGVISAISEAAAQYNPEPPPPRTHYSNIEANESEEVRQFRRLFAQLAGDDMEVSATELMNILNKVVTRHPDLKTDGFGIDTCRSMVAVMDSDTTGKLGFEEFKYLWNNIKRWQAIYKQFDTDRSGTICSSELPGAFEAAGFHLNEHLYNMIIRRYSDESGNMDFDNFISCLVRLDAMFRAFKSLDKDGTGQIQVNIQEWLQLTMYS
As to the kind of experiment: m-calpain inhibition, fluorescence-based assay with BODIPY-casein substrate. In kind it is biochemical. How it is done:
The peptidic alcohol 3 and aldehyde 6 were assayed against m-calpain using a BODIPY-casein substrate in the fluorescence-based assay procedure of V. F. Thompson, S. Saldana, J. Cong and D. E. Goll, Anal. Biochem. 2000, 279, 170.
The results of the enzyme inhibition assay for 3 and 6 are graphically represented in FIGS. 1 and 2, respectively.

The subject of another data set is cataracts. As to the kind of experiment: In vivo cataract progression in lambs, ointment on the eye. Further details: species or system lamb. The following applies: 1% ointment (25 mg) twice daily, 24 lambs. How it is done:
An ointment (25 mg) comprising 1% of the peptidic aldehyde 6 was applied twice daily to the left eye of 24 lambs for three months starting when they were two to three months old. The progression of cataracts was determined by a veterinary opthalmologist with a slit-lamp microscope.

The subject of another data set is adult ovine lens. Briefly: In vitro lens culture assay, calcium induced cataract. It counts as cell-based. The following applies: ovine lens preincubated with 0.8 μM for 2 hours, then 5 mM calcium chloride for 20 hours. How it is done: The ability of the peptidic aldehyde 6 to prevent the formation of a calcium induced cataract in adult ovine lens was assayed using the procedure of J. Sanderson, J. M. Marciantonio and G. A. Duncan, Invest. Opth. Vis. Sci. 2000, 41, 2255. Three pairs of lenses were tested. One lens from each pair was preincubated with [0.8 μM] 6 for 2 hours while the other was incubated in EMEM-culture media at 35° C., 5% CO2. Then 5 mM calcium chloride was added onto both the inhibitor treated lens and the other lens, and both lenses were then incubated for 20 hours. One pair of lenses was photographed when the assay had been completed.

The nature of data set [1]: In vivo eye irritation in a lamb after ointment application. The following applies: 1% ointment (50 mg) applied to one eye of a lamb, three times in one day. The procedure: (§1) An ointment (50 mg) comprising 1% of the peptidic aldehyde 6 was applied to one eye of a lamb, three times in one day.
The nature of data set [2]: Detection of 6 in ovine body parts by LCMS after ointment application to one eye. The following applies: for Compound 6 detected: 1% ointment 50 mg three times in one day. In kind it is in vivo, lamb. How it is done: as §1
Various body parts were assayed for trace amounts of 6 by LCMS using a method similar to that described by A. Maltese and C. Bucolo, Biomedical Chromatography 2000, 16, 274. A rapid high-performance liquid chromatographic method using a C18 reversed-phase column with UV detection at 254 nm was used for the analysis of 6 in ovine samples. A water solution containing 2% ZnSO4.7H2O was used to deproteinise the samples. The mobile phase consisted of CH3CN and H2O containing 0.05% TFA.

Data set [3] can be described thus: Ovine cornea penetration, modified Ussing chamber and LCMS. In kind it is in vitro ADME. The following applies: adult ovine cornea, Ussing chamber, 37° C., 3 hours, LCMS. The procedure:
The peptidic aldehyde 6 was assayed for ovine cornea penetration using a modified Ussing chamber and LCMS based on the procedure of Youn Bok Chung, Kun Han and Vincent H. L. Lee, Pharmaceutical Research, 2000, 15, 1882. Compound 6 (3.5 mg) was dissolved in buffer A (5 mL) and added to the epithelial side a modified Ussing chamber with a pre-mounted adult ovine cornea. Buffer B (5 mL) was added to the endothelial side of the chamber and the whole chamber was incubated 37° C. for 3 hours, 5% CO2. Samples were taken from both sides of the chamber at time=0 and 180 minutes. The samples were analysed for compound 6 using LCMS.

pIC50: −log10 of the molar value.

Broadly, the melting point is the temperature of the solid-liquid transition. Regarding `CC(C)C[C@@H](CO)NC(=O)[C@@H](NC(=O)c1ccc(C=O)o1)C(C)C` [Compound 7, 5-Formyl-furan-2-carboxylic acid [(S)-1-((S)-1-hydroxymethyl-3-methyl-butylcarbamoyl)-2-methyl-propyl]-amide], the melting point lay within 46 to 48 °C.

As a reminder, the pIC50 is −log10 of the IC50, conventionally taken in molar units. `CC(C)C[C@@H](CO)NC(=O)[C@@H](NC(=O)c1ccc(C=O)[nH]1)C(C)C` [Compound 3, 5-Formyl-1H-pyrrole-2-carboxylic acid [(S)-1-((S)-1-hydroxymethyl-3-methyl-butylcarbamoyl)-2-methyl-propyl]-amide] showed a pIC50 at m-calpain of 6.01.

Turning to `CC(C)C[C@@H](C=O)NC(=O)[C@@H](NC(=O)c1ccc(C=O)[nH]1)C(C)C` [Compound 6, 5-Formyl-1H-pyrrole-2-carboxylic acid [(S)-1-((S)-1-formyl-3-methyl-butylcarbamoyl)-2-methyl-propyl]-amide], in the data set with cataracts (first month following treatment (p<0.05)), the “Cataract progression, treated left eye” value is given as “significantly slower cataract progression”. The “Cataract progression, treated versus untreated eyes” value in the data set with cataracts (following two months) is reported as “no significant differences”. For the same molecule, the “Inhibition of cataract formation” value in the data set on adult ovine lens is on record as “yes”. In addition, the Eye irritation entry in data set [1] is given as “No sign of irritation”. Moreover, the Amount detected worked out at 8 ng in data set [2] (Aqueous humour (treated eye)), 6 ng in data set [2] (Lens (treated eye)) and 4 ng in data set [2] (Vitreous humour (treated eye)). Moreover, the “Compound 6 detected” value in data set [2] (Aqueous humour (treated eye)) is given as “yes”; in data set [2] (Kidney), “no”; in data set [2] (Lens (treated eye)), “yes”; in data set [2] (Liver) it was “no”; in data set [2] (Plasma) it was “no”; in data set [2] (Vitreous humour (treated eye)) it was “yes”. This molecule also had a negative logarithm of the IC50 (pIC50) against m-calpain of 7.52. Also, the Cornea penetration entry in data set [3] is recorded as “yes”.

Molecule `CC(C)C[C@@H](CO)NC(=O)[C@@H](NC(=O)c1ccc(C=O)s1)C(C)C` [Compound 5, 5-Formyl-thiophene-2-carboxylic acid [(S)-1-((S)-1-hydroxymethyl-3-methyl-butylcarbamoyl)-2-methyl-propyl]-amide] had a pIC50 on m-calpain of 4.52.

Molecule `CC(C)C[C@@H](CO)NC(=O)[C@@H](NC(=O)c1ccc(C=O)o1)C(C)C` [Compound 4, 5-Formyl-furan-2-carboxylic acid [(S)-1-((S)-1-hydroxymethyl-3-methyl-butylcarbamoyl)-2-methyl-propyl]-amide] had a pIC50 against m-calpain of 3.92.
